Source: ChEMBL document CHEMBL5727219, “Kinase inhibitors and method of treating cancer” (2019)

Assay: Inhibition Assay: PLK3 inhibition was determined using the Z-Lyte assay kit from Invitrogen (cat #PV3802). The assay was performed using the recommended manufacturer's instructions with 100 μM ATP and 21 nM PLK3 (Invitrogen cat #PV3812). The % inhibition values were determined according to the manufacturer's directions and IC50 values were obtained using a non-linear 4 point logistic curve fit (XLfit4, IDBS).

| SMILES | IC50 |
| --- | --- |
| COCCN1C(=O)[C@@]2(C[C@H]2c2ccc3c(/C=C/c4ccc(CN(C)C)cc4)n[nH]c3c2)c2ccccc21 | in the range around 2 µM |
| COc1ccc2c(c1)[C@]1(C[C@H]1c1ccc3c(-c4ccc(CO)cc4)n[nH]c3c1)C(=O)N2 (relative stereo) | in the range around 2 µM |
| CCc1ccc2c(c1)[C@]1(C[C@H]1c1ccc3c(-c4cccc(CN5CCOCC5)c4)n[nH]c3c1)C(=O)N2 | in the range around 2 µM |
| COc1ccc2c(c1)[C@]1(C[C@H]1c1ccc3c(-c4cccc(N5CCNCC5)c4)n[nH]c3c1)C(=O)N2 (relative stereo) | in the range around 2 µM |

Next, values leading:

| IC50 | SMILES |
| --- | --- |
| in the range around 2 µM | COc1ccc2c(c1)[C@]1(C[C@H]1c1ccc3c(-c4cccc(CN5CCCCC5)c4)n[nH]c3c1)C(=O)N2 (relative stereo) |
| in the range around 2 µM | COc1ccc2c(c1)[C@]1(C[C@H]1c1ccc3c(-c4cccc(CN5CCOCC5)c4)n[nH]c3c1)C(=O)N2 (relative stereo) |
